In ChEMBL document CHEMBL1201862, “PubChem BioAssay data set” (2004):
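Dose response: 5 concentrations. Exposure: 48 h. Format: 96-well plates. Endpoint: linear interpolation; highest concentration if not reached. The concentration for 50% growth inhibition is given as GI50.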 Calls of active or inactive are those of the source. Cut-off read from the data, not from the text of the source: active = GI50 up to about 1.1 µM and inactive = higher.

What was measured:
Test in all cases: NCI anticancer screen, dose series, 48 h
[1] = test system: K562
[2] = test system: A549
[3] = test system: SF-295
[4] = test system: NCI-H23
[5] = test system: UACC-62
[6] = test system: HOP-92
[7] = test system: LOX IMVI
[8] = test system: RXF 393
[9] = test system: HL-60
[10] = test system: MDA-N
[11] = test system: MCF7
[12] = test system: CAKI-1
[13] = test system: M14
[14] = test system: SK-MEL-28
[15] = test system: MDA-MB-231
[16] = test system: OVCAR-4
[17] = test system: DU-145
[18] = test system: HOP-62
[19] = test system: Hs-578T
[20] = test system: KM12
[21] = test system: IGROV-1
[22] = test system: SNB-75
[23] = test system: HCT-116
[24] = test system: BT-549
[25] = test system: SR
[26] = test system: T47D
[27] = test system: OVCAR-8
[28] = test system: NCI-H522
[29] = test system: HCT-15
[30] = test system: EKVX
[31] = test system: OVCAR-3
[32] = test system: HT-29
[33] = test system: MOLT-4
[34] = test system: NCI/ADR-RES
[35] = test system: HCC 2998
[36] = test system: SK-MEL-2
[37] = test system: PC-3
[38] = test system: SK-OV-3
[39] = test system: COLO 205
[40] = test system: UACC-257
[41] = test system: SF-268
[42] = test system: Malme-3M
[43] = test system: MDA-MB-435
[44] = test system: A498
[45] = test system: OVCAR-5
[46] = test system: CCRF-CEM
[47] = test system: SN12C
[48] = test system: SW-620
[49] = test system: NCI-H460
[50] = test system: SF-539
[51] = test system: TK-10
[52] = test system: UO-31
[53] = test system: RPMI-8226
[54] = test system: SNB-19
[55] = test system: SK-MEL-5
[56] = test system: ACHN
[57] = test system: 786-0
[58] = test system: NCI-H226
[59] = test system: U-251

For `CCOC(=O)C(NC(=O)CC)(N1CCN(c2cc3c(cc2F)c(=O)c(C(=O)O)cn3C2CC2)CC1)C(F)(F)F` (stereo not drawn), the GI50 [1] was > 100 µM (inactive), the GI50 [2] was > 100 µM (inactive) and the GI50 [3] was > 100 µM (inactive). The GI50 [4] was > 100 µM (inactive), the GI50 [5] was > 100 µM (inactive) and the GI50 [6] was 70.8 µM (inactive). The GI50 [7] was > 100 µM (inactive), the GI50 [8] was > 100 µM (inactive) and the GI50 [9] was > 100 µM (inactive). For the same compound, the GI50 [10] was > 100 µM (inactive), the GI50 [11] was > 100 µM (inactive) and the GI50 [12] was > 100 µM (inactive). For the same compound, the GI50 [13] was > 100 µM (inactive), the GI50 [14] was > 100 µM (inactive) and the GI50 [15] was 52.2 µM (inactive). For the same compound, the GI50 [16] was > 100 µM (inactive), the GI50 [17] was > 100 µM (inactive) and the GI50 [18] was > 100 µM (inactive). For the same compound, the GI50 [19] was > 100 µM (inactive), the GI50 [20] was > 100 µM (inactive) and the GI50 [21] was > 100 µM (inactive). The GI50 [22] was > 100 µM (inactive), the GI50 [23] was > 100 µM (inactive) and the GI50 [24] was > 100 µM (inactive). The GI50 [25] was > 100 µM (inactive), the GI50 [26] was > 100 µM (inactive) and the GI50 [27] was > 100 µM (inactive). For the same compound, the GI50 [28] was > 100 µM (inactive), the GI50 [29] was over 100 µM and the GI50 [30] was > 100 µM (inactive). For the same compound, the GI50 [31] was > 100 µM (inactive), the GI50 [32] was > 100 µM (inactive) and the GI50 [33] was > 100 µM (inactive). For the same compound, the GI50 [34] was > 100 µM (inactive), the GI50 [35] was > 100 µM (inactive) and the GI50 [36] was > 100 µM (inactive). The GI50 [37] was > 100 µM (inactive), the GI50 [38] was > 100 µM (inactive) and the GI50 [39] was > 100 µM (inactive). For the same compound, the GI50 [40] was > 100 µM (inactive), the GI50 [41] was > 100 µM (inactive) and the GI50 [42] was > 100 µM (inactive). For the same compound, the GI50 [43] was > 100 µM (inactive), the GI50 [44] was > 100 µM (inactive) and the GI50 [45] was > 100 µM (inactive). The GI50 [46] was 91.8 µM (inactive), the GI50 [47] was > 100 µM (inactive) and the GI50 [48] was > 100 µM (inactive). For the same compound, the GI50 [49] was > 100 µM (inactive), the GI50 [50] was > 100 µM (inactive) and the GI50 [51] was > 100 µM (inactive). The GI50 [52] was > 100 µM (inactive), the GI50 [53] was > 100 µM (inactive) and the GI50 [54] was > 100 µM (inactive). For the same compound, the GI50 [55] was > 100 µM (inactive), the GI50 [56] was > 100 µM (inactive) and the GI50 [57] was > 100 µM (inactive). For the same compound, the GI50 [58] was > 100 µM (inactive) and the GI50 [59] was 92.9 µM (inactive).
In the case of `O=c1cc(NNc2ccccc2)[nH]c(=S)[nH]1`, the GI50 [1] is reported as 32.4 µM (inactive), the GI50 [2] is reported as > 100 µM (inactive) and the GI50 [3] is reported as > 100 µM (inactive). For the same compound, the GI50 [4] was 47.1 µM (inactive), the GI50 [5] was 63.1 µM (inactive) and the GI50 [6] was 32.6 µM (inactive). The GI50 [7] was 16.8 µM (inactive), the GI50 [8] was 50.2 µM (inactive) and the GI50 [9] was 25.1 µM (inactive). For the same compound, the GI50 [10] was 40.6 µM (inactive), the GI50 [11] was 25.9 µM (inactive) and the GI50 [12] was 20.3 µM (inactive). The GI50 [13] was 36.7 µM (inactive), the GI50 [14] was 42.7 µM (inactive) and the GI50 [15] was 32.1 µM (inactive). For the same compound, the GI50 [16] was 71 µM (inactive), the GI50 [17] was 64.9 µM (inactive) and the GI50 [18] was > 100 µM (inactive). The GI50 [19] was > 100 µM (inactive), the GI50 [20] was 27.5 µM (inactive) and the GI50 [21] was 79.4 µM (inactive). For the same compound, the GI50 [22] was > 100 µM (inactive), the GI50 [23] was 23.2 µM (inactive) and the GI50 [24] was 97.5 µM (inactive). For the same compound, the GI50 [25] was 22.5 µM (inactive), the GI50 [26] was 27.1 µM (inactive) and the GI50 [27] was 36.1 µM (inactive). The GI50 [28] was 17.5 µM (inactive), the GI50 [29] was 17.8 µM and the GI50 [30] was 98.9 µM (inactive). The GI50 [31] was 16.7 µM (inactive), the GI50 [32] was 37.8 µM (inactive) and the GI50 [33] was 35.2 µM (inactive). For the same compound, the GI50 [34] was 40.6 µM (inactive), the GI50 [35] was 17.4 µM (inactive) and the GI50 [36] was 16.6 µM (inactive). The GI50 [37] was > 100 µM (inactive), the GI50 [38] was > 100 µM (inactive) and the GI50 [39] was 49 µM (inactive). The GI50 [40] was 47.6 µM (inactive), the GI50 [41] was 32.7 µM (inactive) and the GI50 [42] was 37.7 µM (inactive). The GI50 [43] was 49.5 µM (inactive), the GI50 [44] was > 100 µM (inactive) and the GI50 [45] was > 100 µM (inactive). For the same compound, the GI50 [46] was 29.8 µM (inactive), the GI50 [47] was > 100 µM (inactive) and the GI50 [48] was 20.5 µM (inactive). The GI50 [49] was 76.2 µM (inactive), the GI50 [50] was 50.2 µM (inactive) and the GI50 [51] was 24.9 µM (inactive). The GI50 [52] was > 100 µM (inactive), the GI50 [53] was 10.5 µM (inactive) and the GI50 [54] was > 100 µM (inactive). For the same compound, the GI50 [55] was 57 µM (inactive), the GI50 [56] was 43.7 µM (inactive) and the GI50 [57] was 4.9 µM (inactive). The GI50 [58] was > 100 µM (inactive) and the GI50 [59] was 45 µM (inactive).
